Laboratory results as given in patent publication US12338219B2, “Antimalarial agents” (Merck Sharp & Dohme LLC, priority 2019, dated 2025).

Test system: parasites (ring stage parasites, parasite growth)
Experiment: Parasite LDH growth assay (Parasite Assay), antiparasite potency
Assay type: cell-based
Conditions: 72 hours growth, LDH readout
Summary of the method: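 Ring-stage culture was adjusted to 0.7% parasitemia and 2% haematocrit in bicarbonate-buffered RPMI-Hepes with heat-inactivated human serum and 0.5% albumax, then added to compound. Plates were incubated 72 h at 37 °C in gassed humidified boxes, frozen at −80 °C overnight and thawed, and growth was read by LDH assay.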

CC1(C)CC(=O)N([C@@H](c2ccc(C#N)cc2)[C@@H]2C[C@H]2C(=O)N[C@H]2C[C@H](C(F)(F)F)Oc3ccccc32)C(=N)N1 [Example 47A]
EC50 (72 h, Table 3): 155 nM

CCC1(CC)CC(=O)N([C@H](CCOC)[C@@H]2C[C@H]2C(=O)N[C@@H]2CC(C)(C)Oc3ccccc32)C(=N)N1 [Example 141]
EC50 (72 h, Table 4 (unit inferred)): 4.7 nM

CCC1(CC)CC(=O)N(C[C@@H]2C[C@H]2C(=O)N[C@H]2CC(C)(C)Oc3ccccc32)C(=N)N1 [Example 5]
EC50 (72 h, Table 3): 49 nM

COc1cncc([C@H]([C@@H]2C[C@H]2C(=O)N[C@H]2C[C@H](C(F)(F)F)Oc3ccccc32)N2C(=N)NC(C)(C)CC2=O)c1 [Example 41]
EC50 (72 h, Table 3): 1.1 nM

Cc1ccc2c(c1)[C@@H](NC(=O)[C@@H]1C[C@H]1CN1C(=N)NC(C)(C)CC1=O)CC(C)(C)O2 [Example 128]
EC50 (72 h, Table 3): 280 nM

CCC1(C)CC(NC(=O)[C@@H]2C[C@H]2[C@@H](CCOC)N2C(=N)NC(C)(C)CC2=O)c2ccccc2O1 (single isomer, unassigned) [Example 75D]
EC50 (Table 3): 7 nM

CC1[C@@H]([C@H](c2cccnc2)N2C(=N)NC(C)(C)CC2=O)[C@@H]1C(=O)N[C@H]1CC(C)(C)Oc2ccccc21 (stereo partly shown) [Example 57B]
EC50 (72 h, Table 3): 100 nM

COCC[C@H]([C@@H]1C[C@H]1C(=O)NC1CC(C)(C(C)C)Oc2ccccc21)N1C(=N)NC(C)(C)CC1=O (single isomer, unassigned) [Example 80D]
EC50 (Table 3): 21 nM

COCC[C@H]([C@@H]1C[C@H]1C(=O)NC1CC(C)(C)Oc2c(Cl)cccc21)N1C(=N)NC(C)(C)CC1=O (stereo partly shown) [Example 112B]
EC50 (Table 3): 9.4 nM

COCC[C@H]([C@@H]1C[C@H]1C(=O)N[C@H]1C[C@H](C(F)(F)F)Oc2ccccc21)N1C(=N)NC(C)(C)CC1=O [Example 24B]
EC50 (72 h, Table 3): 2 nM

CC[C@]1(C)CC(=O)N([C@H](CCOC)[C@@H]2C[C@H]2C(=O)NC2CC(C)(C)Oc3ccc(OC(F)(F)F)cc32)C(=N)N1 (stereo partly shown) [Example 129B]
EC50 (Table 3): 2.5 nM

COCC[C@H]([C@@H]1C[C@H]1C(=O)N[C@@H]1CC(C)(C)Oc2c(F)cc(F)cc21)N1C(=N)NC(C)(C)CC1=O [Example 113A]
EC50 (72 h, Table 3): 19 nM

CCC1(CC)CC(=O)N([C@H](c2cccnc2)[C@@H]2C[C@H]2C(=O)N[C@H]2CCOc3ccccc32)C(=N)N1 [Example 9]
EC50 (72 h, Table 3): 6.9 nM

CCC1(CC)CC(=O)N([C@H](CCOC)[C@@H]2C[C@H]2C(=O)NC2CC(C)(C)Oc3cccc(Cl)c32)C(=N)N1 (stereo partly shown) [Example 149A]
EC50 (72 h, Table 4 (unit inferred)): 1 nM

CCC1(CC)CC(=O)N(CC2C(C(=O)N[C@H]3CCOc4ccccc43)C2(F)F)C(=N)N1 (stereo partly shown) [Example 15A]
EC50 (72 h, Table 3): 240 nM

CCC1(CC)CC(NC(=O)[C@@H]2C[C@H]2[C@@H](CCOC)N2C(=N)NC(C)(C)CC2=O)c2ccccc2O1 (stereo partly shown) [Example 92A]
EC50 (72 h, Table 3): 7.6 nM

CCC1(CC)CC(=O)N([C@H](CCOC)[C@@H]2C[C@H]2C(=O)N[C@H]2c3ccccc3OCC2(C)C)C(=N)N1 [Example 19A]
EC50 (72 h, Table 3): 28 nM

CCC1(CC)CC(=O)N(C[C@@H]2C(C)[C@H]2C(=O)NC2c3ccccc3OC2(C)C)C(=N)N1 (stereo partly shown) [Example 36B]
EC50 (Table 3): 301 nM

CCC1(CC)CC(=O)N(CC2C(C(=O)N[C@H]3C[C@H](C(F)(F)F)Oc4ccccc43)C2(F)F)C(=N)N1 (single isomer, unassigned) [Example 17A]
EC50 (Table 3): 47 nM

CCC1(CC)CC(=O)N([C@H](c2cccnc2)[C@@H]2C[C@H]2C(=O)N[C@H]2c3ccccc3OC(C)(C)[C@@H]2O)C(=N)N1 [Example 11A]
EC50 (72 h, Table 3): 4.1 nM

CC1(C)CC(=O)N([C@H](c2cccnc2)[C@@H]2C[C@H]2C(=O)NC2CC(C)(C)Oc3c(Cl)cc(Cl)cc32)C(=N)N1 (stereo partly shown) [Example 94A]
EC50 (72 h, Table 3): 0.9 nM

COCC[C@H]([C@@H]1C[C@H]1C(=O)N[C@@H]1CC(C)(C)Oc2cc(C)c(C)cc21)N1C(=N)NC(C)(C)CC1=O [Example 138B]
EC50 (72 h, Table 3): 18 nM

COCC[C@H]([C@@H]1C[C@H]1C(=O)NC1CC(C)(C)Oc2ccc(OC(F)(F)F)cc21)N1C(=N)NC(C)(C)CC1=O (stereo partly shown) [Example 126B]
EC50 (Table 3): 8.4 nM

CCC1(CC)CC(NC(=O)[C@@H]2C[C@H]2[C@@H](CCOC)N2C(=N)NC(C)(C)CC2=O)c2ccccc2O1 (stereo partly shown) [Example 92B]
EC50 (Table 3): 7.2 nM

CCC1(CC)CC(=O)N(C[C@@H]2C(C)[C@H]2C(=O)N[C@@H]2c3ccccc3OCC2(C)O)C(=N)N1 (single isomer, unassigned) [Example 35B]
EC50 (Table 3): 220 nM

CC1(C)CC(=O)N([C@H](c2cccnc2)[C@@H]2C[C@H]2C(=O)NC2CC(C)(C)Oc3cc(F)ccc32)C(=N)N1 (stereo partly shown) [Example 77A]
EC50 (72 h, Table 3): 1.7 nM

CC1(C)CC(=O)N(C[C@@H]2C[C@H]2C(=O)NC2CC(C)(C)Oc3c(Cl)cc(Cl)cc32)C(=N)N1 (stereo partly shown) [Example 97A]
EC50 (72 h, Table 3): 180 nM

CCC1(CC)CC(=O)N(CC2C(C(=O)N[C@H]3CC(C)(C)Oc4ccccc43)C2(F)F)C(=N)N1 (single isomer, unassigned) [Example 16B]
EC50 (Table 3): 119 nM

CCC1(CC)CC(=O)N([C@H](CCOC)[C@@H]2C[C@H]2C(=O)N[C@@H]2c3cc(Cl)ccc3OC(C)(C)[C@H]2O)C(=N)N1 [Example 150]
EC50 (72 h, Table 4 (unit inferred)): 3.9 nM

CCC1(CC)CC(=O)N(C[C@H]2C[C@@H]2C(=O)N[C@H]2CCOc3ccccc32)C(=N)N1 [Example 4A]
EC50 (72 h, Table 3): 94 nM

COCC[C@H]([C@@H]1C[C@H]1C(=O)N[C@H]1CC(C)(C)Oc2cccc(Cl)c21)N1C(=N)NC(C)(C)CC1=O [Example 116A]
EC50 (72 h, Table 3): 0.8 nM

COCC[C@H]([C@@H]1C[C@H]1C(=O)NC1CC(C)(COC)Oc2ccccc21)N1C(=N)NC(C)(C)CC1=O (single isomer, unassigned) [Example 82A]
EC50 (Table 3): 24.4 nM

CCC1(CC)CC(=O)N(C(CC(C)OC)[C@@H]2C[C@H]2C(=O)N[C@@H]2CC(C)(C)Oc3ccccc32)C(=N)N1 (single isomer, unassigned) [Example 143B]
EC50 (Table 4 (unit inferred)): 2.4 nM

COCC[C@H]([C@@H]1C[C@H]1C(=O)N[C@H]1CC(C)(C)Oc2ccc(Cl)cc21)N1C(=N)NC(C)(C)CC1=O [Example 101]
EC50 (72 h, Table 3): 2.9 nM

CC1[C@@H](C(c2cccnc2)N2C(=N)NC(C)(C)CC2=O)[C@@H]1C(=O)N[C@H]1C[C@H](C(F)(F)F)Oc2ccccc21 (single isomer, unassigned) [Example 54A]
EC50 (Table 3): 1 nM

CC[C@]1(C)CC(=O)N([C@H](CCOC)[C@@H]2C[C@H]2C(=O)NC2CC(C)(C)Oc3ccc(F)cc32)C(=N)N1 (single isomer, unassigned) [Example 130B]
EC50 (Table 3): 2.4 nM

COCC[C@H]([C@@H]1C[C@H]1C(=O)N[C@@H]1CC(C)(C)Oc2cc(Cl)ccc21)N1C(=N)NC(C)(C)CC1=O [Example 89B]
EC50 (72 h, Table 3): 22 nM

COCC[C@H]([C@@H]1C[C@H]1C(=O)NC1CC(C)(C)Oc2c(F)cccc21)N1C(=N)NC(C)(C)CC1=O (stereo partly shown) [Example 111A]
EC50 (72 h, Table 3): 24 nM

CC1(C)CC(=O)N(C[C@@H]2C[C@H]2C(=O)N[C@H]2CC(C)(C)Oc3cc(Cl)ccc32)C(=N)N1 [Example 90]
EC50 (72 h, Table 3): 225 nM

COc1cncc([C@H]([C@@H]2C[C@H]2C(=O)N[C@H]2CC(C)(C)Oc3ccccc32)N2C(=N)NC(C)(C)CC2=O)c1 [Example 40]
EC50 (72 h, Table 3): 3.1 nM

CC1(C)CC(=O)N([C@H](c2cccnc2)[C@@H]2C[C@H]2C(=O)N[C@@H]2c3ccccc3OC(C)(C)[C@H]2O)C(=N)N1 [Example 27]
EC50 (72 h, Table 3): 78 nM

CC1(C)CC(=O)N([C@H](c2cccnc2)[C@@H]2C[C@H]2C(=O)N[C@H]2CC(C)(C)Oc3cc(Cl)ccc32)C(=N)N1 [Example 91A]
EC50 (72 h, Table 3): 0.8 nM

CC[C@]1(C)CC(=O)N([C@H](CCOC)[C@@H]2C[C@H]2C(=O)NC2CC(C)(C)Oc3ccc(F)cc32)C(=N)N1 (single isomer, unassigned) [Example 130A]
EC50 (Table 3): 0.9 nM

CC[C@]1(C)CC(=O)N([C@H](CCOC)[C@@H]2C[C@H]2C(=O)NC2CC(C)(C)Oc3ccc(OC(F)(F)F)cc32)C(=N)N1 (stereo partly shown) [Example 129A]
EC50 (72 h, Table 3): 1.3 nM

CC[C@]1(C)CC(=O)N([C@H](CCOC)[C@@H]2C[C@H]2C(=O)N[C@@H]2c3ccccc3OC(C)(C)[C@H]2O)C(=N)N1 [Example 61]
EC50 (72 h, Table 3): 6.9 nM

CC1[C@@H]([C@@H](c2cccnc2)N2C(=N)NC(C)(C)CC2=O)[C@@H]1C(=O)N[C@H]1CC(C)(C)Oc2ccccc21 (stereo partly shown) [Example 57A]
EC50 (72 h, Table 3): 3.2 nM

CC1(C)CC(=O)N(C[C@@H]2C[C@H]2C(=O)N[C@H]2CC(C)(C)Oc3cccc(OC(F)(F)F)c32)C(=N)N1 [Example 118]
EC50 (72 h, Table 3): 63 nM

COCC[C@H]([C@@H]1C[C@H]1C(=O)N[C@H]1CC(C)(C)Oc2cccc(OC(F)(F)F)c21)N1C(=N)NC(C)(C)CC1=O [Example 107A]
EC50 (72 h, Table 3): 2.1 nM

CCC1(CC)CC(=O)N([C@H](c2cccnc2)[C@@H]2C[C@H]2C(=O)N[C@@H]2c3ccccc3OC(C)(C)[C@H]2O)C(=N)N1 [Example 11B]
EC50 (72 h, Table 3): 24 nM

COCC[C@H]([C@@H]1C[C@H]1C(=O)NC1CC(C)(C)Oc2c(Cl)cc(Cl)cc21)N1C(=N)NC(C)(C)CC1=O (stereo partly shown) [Example 106B]
EC50 (Table 3): 10 nM

COCC[C@H]([C@@H]1C[C@H]1C(=O)N[C@H]1CC(C)(C)Oc2ccc(C(F)(F)F)cc21)N1C(=N)NC(C)(C)CC1=O [Example 110B]
EC50 (72 h, Table 3): 7.2 nM

COCC[C@H]([C@@H]1C[C@H]1C(=O)N[C@H]1CC(C)(C)Oc2cc(Cl)ccc21)N1C(=N)NC(C)(C)CC1=O [Example 89A]
EC50 (72 h, Table 3): 5.6 nM
